Reference: patent publication US9750698B2, “Controlled release compositions of agents that reduce circulating levels of platelets and methods therefor” (BioVascular, Inc., priority 2008, dated 2017)
Like-named read-outs stand apart in the source and are kept apart here.

Experiments:
[1] = target: CYP1A2 (Homo sapiens, UniProt P05177); settings: cited from earlier work
[2] = Repeat-dose dose-escalation study of controlled release anagrelide: pharmacokinetics; type: in vivo, human; settings: for half-life / AUC0-inf / AUC / Cmax / Tmax / AUC0-t: human, plasma, oral; for AUC0-inf / AUC / Cmax / AUC0-t: dose-normalized to 0.2 mg; for AUC0-inf: read-out: AUC0-inf; for AUC: read-out: AUC0-τ; for Cmax: read-out: Cmax; for Tmax: median; for AUC0-t: read-out: AUC0-t
Experimental: A placebo-controlled, double-blind repeat-dose, dose-escalation, sequential cohort study was conducted to evaluate the pharmacokinetics and pharmacodynamics of a controlled release composition of anagrelide as described herein in healthy subjects. An objective of the study was to explore the dose-response relationship for effects on platelet counts of a low dose range of a composition of anagrelide as described herein in healthy subjects. Other objectives of the study included determining the time course of effect and recovery of a range of doses of the composition including anagrelide on platelet count, determining the effects of a range of doses of the anagrelide compositions on platelet aggregation (collagen and ADP as agonists), determining the single and repeat dose pharmacokinetics of the anagrelide composition, and exploring the safety and tolerability of the compositions given as single doses and repeatedly for up to 21 days.
Eligible subjects were treated as follows: • Subjects were admitted to the unit on day 1 in the morning after an overnight fast and remain in the unit until 4 hours after morning dosing on day 5. • Subjects received a single dose of controlled release composition including anagrelide (or matching placebo) on day 1 in the morning. • Subjects commenced repeat dosing twice a day with the controlled release anagrelide composition on the morning of day 3 and remained in the unit until 4 hours after morning dose on day 5. • Subjects continued repeat twice a day dosing with the controlled release anagrelide composition as outpatients. Dosing continued until the morning of day 23. • All morning doses were taken after an overnight fast of at least 8 hour. • All evening doses were taken at least 2 hour after food consumption. No food was to be consumed for at least 1 hour after any dose (4 hours for the morning doses on day 1 and day 23). • On day 6-day 21, blood was taken pre-dosing of the controlled release anagrelide composition for full blood count (FBC) and platelet count (every day), trough PK (day 7, day 10, day 13, day 16 and day 19) and clinical chemistry (day 13). • Subjects were readmitted to the unit on the morning of day 22 and remained there until day 25 so that the PK of the final dose of the controlled release composition containing anagrelide on day 23 could be followed for 48 hours. • Subjects returned to the clinic daily from day 26 to day 31 for FBC and platelet counts. • Subjects returned for a follow up visit 14-16 days after the last dose of the controlled release composition containing anagrelide. Study Population:
A controlled release composition of anagrelide as described above in Table 4 of Example 1 (composition 2 fast release with seal coat) was used in unit doses of 100 μg and 300 μg, administered orally.
In this protocol, 4 cohorts of 200 μg, 300 μg, 400 μg and 600 μg doses of the controlled release composition including anagrelide administered twice daily were studied.
Platelet count, collagen-induced platelet aggregation, ADP induced platelet aggregation, template bleeding time, AUC0-t, AUC0-∞, Cmax, Cmin, t1/2, λZ and tmax were determined.
The starting dose of 200 μg (as a single dose on day 1 and then twice a day for 21 days) was chosen as a dose unlikely to cause any clinically significant reduction in platelet counts in healthy subjects. This starting dose was chosen because identification of the lowest dose of the controlled release composition containing anagrelide producing any effect on platelet counts was of interest. In each subsequent cohort the dose was increased by […] twice a day with the objective of identifying the dose range that lowers platelet counts by 30-50%. With daily monitoring of platelet counts, this escalation was determined to allow identification of the effective dose range of the controlled release composition of anagrelide without placing the subjects at significant clinical risk.

[3] = tested on: cGMP PDE; settings: sonicated human platelets; read-out: IC50 for inhibition of cGMP PDE activity; cited from earlier work
[4] = 38 volunteers, single 1 mg dose of immediate release anagrelide (Agrylin); cited from earlier work
[5] = cited from earlier work
[6] = tested on: cultured megakaryocytes; settings: cultured megakaryocytes; cited from earlier work
[7] = tested on: cultured megakaryocytes; assay: In vitro studies of cultured megakaryocytes (TPO inhibition effects, megakaryocytopoiesis); type: cell-based; settings: at 310.55 g/mol
[8] = tested on: circulating platelets; settings: patients with essential thrombocythemia, immediate release form 3 mg/day, after approximately 10 days; cited from earlier work
[9] = patients with ET or other myeloproliferative diseases; cited from earlier work
[10] = cited from earlier work; remark: listed apart in the source
[11] = tested on: cAMP PDE; settings: sonicated human platelets; read-out: IC50 for inhibition of cAMP PDE activity; cited from earlier work
[12] = 0.2 mg, cohort 1 (0.2 mg), day 1
[13] = 0.2 mg, cohort 1 (0.2 mg), day 23
[14] = 0.3 mg, cohort 4 (0.3 mg), day 1
[15] = 0.3 mg, cohort 4 (0.3 mg), day 23
[16] = 0.4 mg, cohort 2 (0.4 mg), day 1
[17] = 0.4 mg, cohort 2 (0.4 mg), day 23
[18] = 0.6 mg, cohort 3 (0.6 mg), day 1
[19] = 14C labelled anagrelide in humans

CYP1A2, sequence (P05177 whole entry): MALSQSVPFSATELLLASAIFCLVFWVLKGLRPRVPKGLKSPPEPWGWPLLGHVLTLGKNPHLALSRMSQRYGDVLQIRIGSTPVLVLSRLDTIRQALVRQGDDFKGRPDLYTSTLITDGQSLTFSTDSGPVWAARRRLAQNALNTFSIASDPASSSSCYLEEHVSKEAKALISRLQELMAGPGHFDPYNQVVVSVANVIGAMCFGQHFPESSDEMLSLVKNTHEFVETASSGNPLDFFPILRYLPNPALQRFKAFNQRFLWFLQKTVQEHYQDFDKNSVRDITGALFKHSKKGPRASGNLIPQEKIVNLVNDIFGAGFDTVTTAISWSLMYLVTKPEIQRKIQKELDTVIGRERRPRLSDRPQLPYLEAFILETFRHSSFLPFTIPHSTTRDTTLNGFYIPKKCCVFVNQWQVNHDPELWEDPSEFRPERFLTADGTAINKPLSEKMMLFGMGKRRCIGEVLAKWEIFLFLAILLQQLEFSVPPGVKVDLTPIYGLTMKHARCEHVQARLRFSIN

## O=C1CN2Cc3c(ccc(Cl)c3Cl)N=C2N1 [anagrelide, 6,7-dichloro-1,5-dihydroimidazo-[2,1-b]quinazolin-2(3H)-one]
[1]
  Level of CYP1A2 inhibition relative to therapeutic exposure: about 900 fold
[2]; cohort 1 (0.2 mg), day 1
  Kel: 0.1908 h⁻¹
  AUC0-t: 1.72 ng·h/mL
[2]; cohort 1 (0.2 mg), day 23
  Kel: 0.0871 h⁻¹
[2]; cohort 2 (0.4 mg), day 1
  Kel: 0.0426 h⁻¹
  AUC0-t: 1.66 ng·h/mL
[2]; cohort 2 (0.4 mg), day 23
  Kel: 0.0567 h⁻¹
[2]; cohort 3 (0.6 mg), day 1
  Kel: 0.0490 h⁻¹
  AUC0-t: 2.26 ng·h/mL
[2]; cohort 4 (0.3 mg), day 1
  Kel: 0.1685 h⁻¹
  AUC0-t: 1.82 ng·h/mL
[2]; cohort 4 (0.3 mg), day 23
  Kel: 0.0321 h⁻¹
[2]; [12]
  half-life: 22.9 h
  AUC0-inf: 2.45 ng·h/mL
  AUC: 1.75 ng·h/mL
  Cmax: 0.334 ng/mL
  Tmax: 4 h
[2]; [13]
  half-life: 34.3 h
  AUC0-inf: 3.25 ng·h/mL
  AUC: 2 ng·h/mL
  Cmax: 0.354 ng/mL
  Tmax: 3 h
[2]; [14]
  half-life: 14.3 h
  AUC0-inf: 2.24 ng·h/mL
  AUC: 1.63 ng·h/mL
  Cmax: 0.284 ng/mL
  Tmax: 3.61 h
[2]; [15]
  half-life: 21.6 h
  AUC0-inf: 2.1 ng·h/mL
  AUC: 1.87 ng·h/mL
  Cmax: 0.224 ng/mL
  Tmax: 2 h
[2]; [16]
  half-life: 56.1 h
  AUC0-inf: 3.48 ng·h/mL
  AUC: 1.48 ng·h/mL
  Cmax: 0.234 ng/mL
  Tmax: 3.51 h
[2]; [17]
  half-life: 15.1 h
  AUC0-inf: 3.28 ng·h/mL
  AUC: 2.26 ng·h/mL
  Cmax: 0.331 ng/mL
  Tmax: 3.02 h
[2]; [18]
  half-life: 19.5 h
  AUC0-inf: 2.74 ng·h/mL
  AUC: 1.96 ng·h/mL
  Cmax: 0.304 ng/mL
  Tmax: 4 h
[3]
  IC50: 34 µM
[4]
  AUC0-inf ± RSD (%): 11.1 ± 37.6 ng·h/mL
  Cmax ± RSD (%): 4.99 ± 74.4 ng/mL
  Tmax ± RSD (%): 1.3 ± 53.8 h
[5]; [19]
  Eliminated via the kidneys: > 70%
  Excreted in the feces: approximately 10%
[5]; commercially available instant release formulation
  Terminal half-life: 1.7 h
[5]; in vivo
  Drug-drug interactions with hydroxycarbamide or aspirin: No drug-drug interactions were identified
[5]; oral, marketed immediate release formulation
  Absorption in the gastrointestinal tract: about 70%
[6]
  Concentrations at which TPO inhibition effects are seen: 0.01 to 5 µg/mL
[7]
  Concentrations at which TPO inhibition effects are seen (molar equivalent): 0.032 to 0.16 µM
[8]
  Decrease in the number of circulating platelets: 30-50%
[9]
  Observed half-life: about 1.7 h
  Share of all drug-related products in the plasma: less than 20%
[10]
  Solubility in diethyl ether or n-heptane: insoluble
  Solubility in dimethylsulfoxide and N,N-dimethylformamide: sparingly soluble
  Solubility in water: very slightly soluble
[11]
  IC50: 0.054 µM
